Experimental data taken from US20210171576A1, “METHODS FOR TREATING CANCER WITH ACYLDEPSIPEPTIDE ANALOGS” (priority 2018, published 2021).
Where a SMILES comes first, the peptide text is derived from it. Bridges are numbered along the chain shown (N, C = ends). [ ]: non-standard residue; d: D form. The star is where a group is joined. Phe(3,5-F2) = N[C@@H](Cc1cc(F)cc(F)c1)C(=O)O; Heptenoyl(2E) = CCCC/C=C/C(=O)*; aThr = C[C@H](O)[C@H](N)C(=O)O; Pip = O=C(O)[C@@H]1CCCCN1

Experiments:
[1] = test system: HEK293 T-REx WT cells; assay: Western blots for HsCIpX and apoptotic protein markers; assay type: cell-based, human
Protocol: Cells were harvested by the standard trypsinization protocol and counted with a hemocytometer. Cell lysates were prepared by first re-suspending the cells in PBS at 5×10^6 cells/mL, followed by sonication. Proteins in the lysates were analyzed by Western blotting using Immobilin-P PVDF membranes (EMD Millipore). Blots were imaged and analyzed with the ChemiDoc XRS+ System (BioRad). Quantification of HsCIpP expression was performed by densitometry using the Quantity One 1D Analysis Software (BioRad). HsCIpP expression levels were corrected for sample loading errors and normalized to the expression level in HEK293 T-REx WT. Primary antibodies for HsCIpP, HsCIpX and GAPDH were purchased from Abcam. Primary antibodies for Caspase-8, Caspase-9 and PUMA were purchased from Cell Signaling Technologies. The primary antibody for Caspase-3 was purchased from R&D Systems. Primary antibodies for Mcl-1 and Bcl-2 were purchased from EMD Millipore. The primary antibody for the FLAG-tag was purchased from Sigma-Aldrich. HRP-conjugated goat anti-rabbit IgG (for HsCIpX, Caspase-8, Caspase-9 and PUMA) and HRP-conjugated goat anti-mouse IgG (for HsCIpP, Mcl-1, Bcl-2, GAPDH and FLAG-tag) were purchased from BioRad. HRP-conjugated rabbit anti-goat IgG (for Caspase-3) was purchased from Sigma-Aldrich.

[2] = test system: HeLa (regular) cells; assay: Cytotoxicity, SRB staining
Protocol: To assess the cytotoxicity of ADEP analogs, cells were seeded at 1×10^3 or 2×10^3 cells in 50 μL per well on sterile 96-well flat-bottom tissue culture plates (VWR). Growth media without any cells was included as a control. Cells were grown for at least 24 hours to allow proper adherence to the growth surface. Afterwards, ADEP analogs were serially diluted and introduced to the tissue cultures via fresh growth media at 50 μL per well. Inclusion of activators/DMSO brought the final DMSO concentration of the growth media up to a maximum of 0.5% (v:v). […] A total of four independent replicates were prepared for each cell line and for each growth condition used. Cells were grown in the presence of ADEP/DMSO for 72 hours.
(§1) To assess cell survival, live adherent cells were fixed with 10% (w:v) trichloroacetic acid (TCA) at 4° C. for 1-2 hours. The tissue culture plates were then rinsed with water to remove dead cells and cell debris and air-dried overnight. […] Absorbance at λ=510 nm (A510) was then measured using the EnSpire 2300 Multilabel Reader. […]
(§2) To determine the IC50 for the ADEP analogs, relative cell viability (RCV) values were calculated by normalizing the A510 readings in ADEP-containing sample to the DMSO-only control. […]

[3] = test system: HEK293 T-REx+CLPP-FLAG cells; assay: Cytotoxicity, SRB staining, with or without Dox
Protocol: (§3) To assess the cytotoxicity of ADEP analogs, cells were seeded at 1×10^3 or 2×10^3 cells in 50 μL per well on sterile 96-well flat-bottom tissue culture plates (VWR). Growth media without any cells was included as a control. Cells were grown for at least 24 hours to allow proper adherence to the growth surface. Afterwards, ADEP analogs were serially diluted and introduced to the tissue cultures via fresh growth media at 50 μL per well. Inclusion of activators/DMSO brought the final DMSO concentration of the growth media up to a maximum of 0.5% (v:v). For experiments that involve overexpression of FLAG-tagged HsCIpP (WT or S153A mutant), Dox (Sigma-Aldrich) was also applied at 0.4 μg/mL (final concentration) as needed. A total of four independent replicates were prepared for each cell line and for each growth condition used. Cells were grown in the presence of ADEP/DMSO for 72 hours.
as §1, §2

[4] = test system: HEK293 T-REx+CLPPS153A-FLAG cells; assay: Cytotoxicity, SRB staining, with or without Dox
Protocol: as §3, §1, §2

CCCC/C=C/C(=O)N[C@@H](Cc1cc(F)cc(F)c1)C(=O)N[C@@H]1C(=O)N2CCC[C@H]2C(=O)N2CCCC[C@H]2C(=O)N[C@@H](C)C(=O)N2CCC[C@H]2C(=O)O[C@H]1C [ADEP-41] ({Heptenoyl(2E)}-[Phe(3,5-F2)][aThr]P[Pip]AP; ester 2-C)
activation-specific cleavage of Caspase-8 ([1]; 10 μM, 72 hours): no activation-specific cleavage was observed
activation-specific cleavage of Caspase-9 and Caspase-3 ([1]; 10 μM, 72 hours): activation-specific cleavage was detected
level of anti-apoptotic Bcl-2 protein ([1]; 10 μM, 72 hours): no change
HsCIpX level ([1]; 20 μM 24 hours or 10 μM 72 hours): no longer detected
activation-specific cleavage of Caspase-8, Caspase-9 or Caspase-3 ([1]; 20 μM, 24 hours): no activation-specific cleavage was observed
anti-apoptotic Mcl-1 protein ([1]; 20 μM, 24 hours): degraded
pro-apoptotic PUMA protein ([1]; 20 μM, 24 hours): significantly upregulated
IC50 compared across cell lines [2]: similar
change in IC50 relative to WT ([3]; 0.4 μg/mL Dox, HsCIpP overexpression): significant decrease in IC50
sensitivity relative to WT ([3]; without Dox): equally sensitive
change in IC50 ([4]; 0.4 μg/mL Dox, inactive HsCIpP(S153A) overexpression): no change in IC50
sensitivity relative to WT ([4]; without Dox): equally sensitive
